# ChEMBL document CHEMBL1201862, “PubChem BioAssay data set” (2004)
# Calls of active or inactive are those of the source.
# Experiments:
# [1] = target: G-protein coupled receptor 55 (Homo sapiens, UniProt Q9Y2T6); assay: inhibition of LPI-stimulated GPR55 beta-arrestin translocation – imaging, U2OS, beta-arrestin-GFP, LPI agonist, primary screen (AID 2013); assay type: functional;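 also: antagonist potency measured as reduced agonist-driven arrestin aggregation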
# Beta Lactamase = Beta Lactamase (Pseudomonas aeruginosa, UniProt Q932Y6); assay: BLA reporter interference, concentration series – BLA reporter cells, FRET fluorescence, artefact control for TLR9-MyD88 binding inhibitor project, dose response (AID 588341); assay type: cell-based;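 also: cell based assay in CHO-K1 cells stably expressing beta-lactamase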
# Sequence of Beta Lactamase (Q932Y6 whole entry): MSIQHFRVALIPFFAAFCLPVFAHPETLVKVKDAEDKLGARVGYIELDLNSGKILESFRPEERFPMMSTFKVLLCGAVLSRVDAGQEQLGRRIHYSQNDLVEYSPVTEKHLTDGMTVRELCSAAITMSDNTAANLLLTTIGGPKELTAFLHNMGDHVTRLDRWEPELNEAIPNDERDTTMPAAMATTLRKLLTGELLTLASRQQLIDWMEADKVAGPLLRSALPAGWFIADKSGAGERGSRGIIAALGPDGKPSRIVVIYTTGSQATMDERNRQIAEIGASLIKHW
# HEK293 [2] = assay: cells; conditions: Homo sapiens
# [3] = non-specific 3'UTR reporter inhibition in Clone20-Shn3RL – cell-based, Renilla luciferase, cherry-picked, counter-screen for Shn3 inhibitor project, dose response (AID 624133); assay type: functional
# [4] = reduction of Shn3 3'UTR-driven luciferase in osteoblasts – cell-based, Clone20 osteoblasts, firefly luciferase, cherry-picked, dose response (AID 624132); assay type: functional;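 also: firefly luciferase luminescence from reporter carrying the Shn3 3'UTR in osteoblasts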
# [5] = microbe, parasite or virus in culture; assay type: functional; conditions: Mycobacterium tuberculosis
# HEK293 [6] = assay: cells; conditions: Homo sapiens; remark: listed apart in the source
# [7] = loss of viability in HepG2 cells – cell-based, CellTiter-Glo, cherry-picked, cytotoxicity control for Shn3 inhibitor project, dose response (AID 624134); assay type: functional
# CHO = CHO cell viability loss, potency – luminescence, cytotoxicity control for TLR9-MyD88 binding inhibitor project, dose response (AID 588339); assay type: functional, cell-based, hamster; conditions: Cricetulus griseus;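 also: CHO cells stably coexpressing TLR9 and MyD88 fusions from primary screen; compound exposure lasted 48 hours before viability readout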
# Vero = assay: cells; assay type: functional; conditions: Chlorocebus sabaeus
# Cytochrome P450 2C9 = Cytochrome P450 2C9 (Homo sapiens, UniProt P11712)
# Sequence of Cytochrome P450 2C9 (P11712 whole entry): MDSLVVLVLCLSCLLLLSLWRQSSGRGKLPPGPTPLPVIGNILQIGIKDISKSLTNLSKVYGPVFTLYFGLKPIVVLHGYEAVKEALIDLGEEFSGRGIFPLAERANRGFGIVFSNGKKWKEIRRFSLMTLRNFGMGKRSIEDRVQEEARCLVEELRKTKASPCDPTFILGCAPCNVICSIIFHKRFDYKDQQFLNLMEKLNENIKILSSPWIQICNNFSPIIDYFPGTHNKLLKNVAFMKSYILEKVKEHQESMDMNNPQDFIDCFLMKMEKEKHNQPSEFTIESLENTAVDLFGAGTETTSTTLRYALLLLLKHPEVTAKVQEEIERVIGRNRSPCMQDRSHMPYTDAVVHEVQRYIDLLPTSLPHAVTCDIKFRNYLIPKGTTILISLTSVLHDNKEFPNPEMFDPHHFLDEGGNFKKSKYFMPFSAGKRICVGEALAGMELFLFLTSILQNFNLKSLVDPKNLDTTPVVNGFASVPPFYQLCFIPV
# Cytochrome P450 2D6 = Cytochrome P450 2D6 (Homo sapiens, UniProt P10635);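 also: CYP2D6 member of a cytochrome P450 panel assay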
# Sequence of Cytochrome P450 2D6 (P10635 whole entry): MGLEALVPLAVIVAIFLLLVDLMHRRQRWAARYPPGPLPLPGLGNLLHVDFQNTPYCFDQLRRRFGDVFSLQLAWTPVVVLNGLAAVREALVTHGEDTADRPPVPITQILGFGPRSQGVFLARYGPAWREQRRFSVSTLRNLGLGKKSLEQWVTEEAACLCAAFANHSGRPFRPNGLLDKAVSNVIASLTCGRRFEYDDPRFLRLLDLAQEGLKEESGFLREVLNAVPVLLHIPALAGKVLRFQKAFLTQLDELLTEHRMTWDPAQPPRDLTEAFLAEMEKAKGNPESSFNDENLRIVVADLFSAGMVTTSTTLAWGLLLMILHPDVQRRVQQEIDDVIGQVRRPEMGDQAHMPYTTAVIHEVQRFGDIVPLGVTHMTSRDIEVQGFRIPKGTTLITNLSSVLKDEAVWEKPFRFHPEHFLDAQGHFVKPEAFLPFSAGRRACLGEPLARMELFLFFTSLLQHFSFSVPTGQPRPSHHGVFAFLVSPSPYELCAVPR
# Cytochrome P450 1A2 = target: T1, Cytochrome P450 1A2 (Homo sapiens, UniProt P05177);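 also: PubChem cytochrome P450 panel assay, CYP1A2 panel member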
# T1 sequence (P05177 whole entry): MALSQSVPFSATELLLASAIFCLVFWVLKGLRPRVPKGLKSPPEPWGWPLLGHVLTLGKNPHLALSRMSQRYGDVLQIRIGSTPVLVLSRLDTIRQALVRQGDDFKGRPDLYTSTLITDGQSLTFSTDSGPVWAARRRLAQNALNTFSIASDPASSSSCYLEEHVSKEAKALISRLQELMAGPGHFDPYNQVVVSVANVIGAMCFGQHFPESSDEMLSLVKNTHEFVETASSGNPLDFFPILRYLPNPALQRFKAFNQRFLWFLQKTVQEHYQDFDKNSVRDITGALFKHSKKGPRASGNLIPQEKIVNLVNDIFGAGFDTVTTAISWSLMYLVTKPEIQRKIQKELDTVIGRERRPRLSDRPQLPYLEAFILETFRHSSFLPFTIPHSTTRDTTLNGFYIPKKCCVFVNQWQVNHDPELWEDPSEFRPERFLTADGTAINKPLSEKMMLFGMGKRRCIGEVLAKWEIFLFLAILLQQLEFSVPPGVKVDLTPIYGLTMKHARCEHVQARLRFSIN
# [8] = target: 72 kDa type IV collagenase (Homo sapiens, UniProt P08253); assay: Dose Response validation of uHTS RPN11 inhibitor hits using a MMP-2 Fluorescence assay.; assay type: functional
# Sequence of 72 kDa type IV collagenase (P08253 whole entry): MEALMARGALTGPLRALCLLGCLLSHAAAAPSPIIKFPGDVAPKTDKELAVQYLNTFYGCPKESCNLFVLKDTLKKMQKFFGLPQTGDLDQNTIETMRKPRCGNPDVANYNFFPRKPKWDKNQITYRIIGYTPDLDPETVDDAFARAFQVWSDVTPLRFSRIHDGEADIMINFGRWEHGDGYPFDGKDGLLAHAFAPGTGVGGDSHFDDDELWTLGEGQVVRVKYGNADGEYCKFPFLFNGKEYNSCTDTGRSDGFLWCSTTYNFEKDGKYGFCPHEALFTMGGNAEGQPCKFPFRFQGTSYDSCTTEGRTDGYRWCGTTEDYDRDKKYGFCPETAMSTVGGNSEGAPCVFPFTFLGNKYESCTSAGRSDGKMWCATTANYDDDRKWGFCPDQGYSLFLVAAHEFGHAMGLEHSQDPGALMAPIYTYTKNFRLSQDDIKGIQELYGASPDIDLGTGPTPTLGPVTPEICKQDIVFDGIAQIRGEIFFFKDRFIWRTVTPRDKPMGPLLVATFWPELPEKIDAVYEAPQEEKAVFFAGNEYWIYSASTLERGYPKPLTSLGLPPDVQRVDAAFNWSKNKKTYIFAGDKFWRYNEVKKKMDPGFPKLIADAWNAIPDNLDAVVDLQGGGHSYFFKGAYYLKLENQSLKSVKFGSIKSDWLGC
# Prothrombin = Prothrombin (Bos taurus, UniProt P00735); assay: thrombin protease inhibitors – biochemical, fluorescence polarization, uHTS hits, dose response (AID 602369); assay type: functional
# [9] = target: 26S proteasome non-ATPase regulatory subunit 14 (Homo sapiens, UniProt O00487); assay: inhibition of proteasome subunit RPN11 – biochemical, fluorescence polarization, uHTS hits, confirmation (AID 602368); assay type: functional
# Sequence of 26S proteasome non-ATPase regulatory subunit 14 (O00487 whole entry): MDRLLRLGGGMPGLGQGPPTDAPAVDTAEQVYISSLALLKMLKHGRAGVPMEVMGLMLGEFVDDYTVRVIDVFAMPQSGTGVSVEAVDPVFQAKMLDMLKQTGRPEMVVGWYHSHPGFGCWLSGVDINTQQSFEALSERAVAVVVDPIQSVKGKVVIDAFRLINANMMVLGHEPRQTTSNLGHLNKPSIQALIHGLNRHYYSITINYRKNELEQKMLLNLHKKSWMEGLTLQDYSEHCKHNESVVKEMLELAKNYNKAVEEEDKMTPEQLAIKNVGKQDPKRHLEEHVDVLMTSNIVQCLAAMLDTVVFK
# [10] = target: T2, Tyrosine-protein phosphatase non-receptor type 7 (Homo sapiens, UniProt P35236); assay: redox-active compounds inhibiting HePTP phosphatase – biochemical, fluorescence, mechanism study (AID 2068); assay type: functional
# T2 sequence (P35236 whole entry): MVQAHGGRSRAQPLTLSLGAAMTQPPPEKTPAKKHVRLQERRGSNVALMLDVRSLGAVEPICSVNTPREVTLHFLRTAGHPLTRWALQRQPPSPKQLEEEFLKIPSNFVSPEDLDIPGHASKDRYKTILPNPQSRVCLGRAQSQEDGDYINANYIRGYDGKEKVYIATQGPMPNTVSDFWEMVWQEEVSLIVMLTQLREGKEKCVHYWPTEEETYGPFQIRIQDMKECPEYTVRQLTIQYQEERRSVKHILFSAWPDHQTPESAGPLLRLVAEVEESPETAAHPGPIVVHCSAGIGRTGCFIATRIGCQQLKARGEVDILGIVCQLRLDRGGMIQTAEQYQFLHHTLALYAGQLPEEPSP
# [11] = blockers of HIV-1 envelope-mediated cell-cell fusion – cherry-pick, dose response (AID 652057); assay type: functional, cell-based
# [12] = blockers of HIV-1 ZM109 envelope-driven cell-cell fusion – HeLa effector, CEM target cells, luciferase, cherry-pick, dose response (AID 652058); assay type: functional, cell-based;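 also: luciferase signal from HIV-1 Env mediated cell-cell fusion of effector and target cells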
# [13] = HIV-1 AD8 envelope cell-cell fusion blockers – cherry-pick, dose response (AID 652062); assay type: functional, cell-based;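 also: luciferase signal from cell-cell fusion driven by HIV-1 clade B AD8 Env; potency is for inhibitors of fusion seen as a drop in luminescence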
# [14] = off-target signal loss in HeLa-CEM21 co-culture – HeLa F-luc CTL cells, cherry-picked, counter-screen for HIV-1 Env fusion inhibitor project, dose response (AID 652040); assay type: functional, cell-based;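 also: potency for signal decrease marking cytotoxic or nonspecific inhibition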
# [15] = Luminescence Cell-Based Dose Retest to Confirm Inhibitors of Cancer Stem Cells. [Related pubchem assays (depositor defined):AID2717, AID2721]; assay type: functional; conditions: Homo sapiens
# [16] = target: T3, E3 ubiquitin-protein ligase XIAP (Homo sapiens, UniProt P98170); assay: small molecules displacing peptide from XIAP – biochemical, IAP family, fluorescence polarization (AID 1018); assay type: functional
# T3 sequence (P98170 whole entry): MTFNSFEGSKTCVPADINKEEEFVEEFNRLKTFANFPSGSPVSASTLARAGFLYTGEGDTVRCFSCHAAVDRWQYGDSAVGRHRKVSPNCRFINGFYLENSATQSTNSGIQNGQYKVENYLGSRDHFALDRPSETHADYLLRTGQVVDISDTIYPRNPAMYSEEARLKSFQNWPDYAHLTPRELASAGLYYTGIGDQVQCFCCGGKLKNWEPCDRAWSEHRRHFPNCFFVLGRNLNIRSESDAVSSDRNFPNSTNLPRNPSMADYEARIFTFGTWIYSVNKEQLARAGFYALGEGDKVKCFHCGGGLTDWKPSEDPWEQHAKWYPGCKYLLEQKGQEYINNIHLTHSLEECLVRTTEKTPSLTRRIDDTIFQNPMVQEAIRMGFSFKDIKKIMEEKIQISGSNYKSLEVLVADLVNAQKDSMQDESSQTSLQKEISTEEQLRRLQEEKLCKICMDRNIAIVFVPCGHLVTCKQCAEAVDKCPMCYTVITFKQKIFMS
# [17] = target: T3, E3 ubiquitin-protein ligase XIAP; assay: Counter Screen using XIAP-Bir3 for Chemical Antagonists of Bir1/2 domains of IAP-family anti-apoptotic proteins. [Related pubchem assays (depositor defined):AID1018, AID1449, AID1514, AID1638, AID1749, AID1750, AID488957, AID488963]
# [18] = A Cell Based Secondary Assay To Explore Cytotoxicity of Compounds that Sensitize Mycobacterium Tuberculosis to Beta-Lactam Antibiotics.; assay type: functional
# [19] = NIH3T3 cell viability loss – ATP luminescence, mouse fibroblasts, counter-screen, dose response (AID 2010); assay type: functional, cell-based;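 also: cells exposed to compound for about 90 hours before reading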
# [20] = Trypanosoma cruzi growth suppression in host cells – NIH3T3 host cells, beta-gal luminescence, confirmation (AID 2044); assay type: functional, cell-based;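 also: intracellular parasites grown in NIH/3T3 mouse fibroblasts as host cells; luminescent beta-galactosidase reporter signal from transgenic T. cruzi replicating inside host cells; inhibitors lower the luminescence signal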
# [21] = viability loss in THP-1 monocytes – THP-1 cells, cytotoxicity control for Vif-APOBEC3G degradation inhibitor project, dose response (AID 1117359); assay type: functional; conditions: THP-1
# [22] = target: T4, Orexin/Hypocretin receptor type 1 (Homo sapiens, UniProt O43613); assay: (§1) Fluorescence-based cell-based high throughput dose response assay for antagonists of the orexin 1 receptor (OX1R; HCRTR1). [Related pubchem assays (depositor defined):AID434989, AID435008, AID463079, AID485270, AID492963, AID492964, AID492965, AID493232, AID504717, AID504718]; assay type: functional
# T4 sequence (O43613 whole entry): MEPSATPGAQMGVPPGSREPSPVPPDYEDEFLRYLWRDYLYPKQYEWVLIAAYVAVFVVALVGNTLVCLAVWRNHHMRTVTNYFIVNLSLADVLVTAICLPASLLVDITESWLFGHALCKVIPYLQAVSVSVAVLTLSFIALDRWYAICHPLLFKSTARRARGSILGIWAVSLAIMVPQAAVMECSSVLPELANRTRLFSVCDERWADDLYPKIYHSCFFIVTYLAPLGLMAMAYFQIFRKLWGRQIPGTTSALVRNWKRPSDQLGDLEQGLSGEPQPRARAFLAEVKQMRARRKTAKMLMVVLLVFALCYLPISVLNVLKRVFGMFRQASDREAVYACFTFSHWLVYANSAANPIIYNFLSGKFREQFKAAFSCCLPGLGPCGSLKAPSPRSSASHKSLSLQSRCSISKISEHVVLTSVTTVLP
# CHO-K1 = assay: (§2) Counterscreen for antagonists of the orexin 1 receptor (OX1R; HCRTR1): Homogeneous time resolved fluorescence (HTRF)-based cell-based dose response assay to identify antagonists of the parental CHO-K1 cell line. [Related pubchem assays (depositor defined):AID434989, AID435008, AID463079, AID485270, AID492963, AID492964, AID492965, AID493232, AID504699, AID504701]; assay type: functional; conditions: Cricetulus griseus
# [23] = target: T4, Orexin/Hypocretin receptor type 1; assay: as §1, with “Homogeneous Time Resolved Fluorescence (HTRF)-based” for “Fluorescence-based”; assay type: functional
# [24] = as §2, with “Fluorescence-based” for “Homogeneous time resolved fluorescence (HTRF)-based”, “cell-based high throughput” for “cell-based”, “CHO” for “CHO-K1”; assay type: functional
# Sequence of G-protein coupled receptor 55 (Q9Y2T6 whole entry): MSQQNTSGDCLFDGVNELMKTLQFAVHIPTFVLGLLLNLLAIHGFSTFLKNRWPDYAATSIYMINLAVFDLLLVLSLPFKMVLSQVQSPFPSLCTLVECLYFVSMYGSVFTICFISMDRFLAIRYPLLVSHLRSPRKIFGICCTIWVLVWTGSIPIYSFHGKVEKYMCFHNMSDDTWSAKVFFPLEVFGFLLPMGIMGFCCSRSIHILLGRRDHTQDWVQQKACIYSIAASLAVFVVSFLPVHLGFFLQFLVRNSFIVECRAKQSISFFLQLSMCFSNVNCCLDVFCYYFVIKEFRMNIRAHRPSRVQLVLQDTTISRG
smiles,measurement,setting,value
CC1CC(N(C(=O)c2ccco2)c2ccccc2)c2ccccc2N1C(=O)c1ccco1 (stereo not given),IC50,[1],5.52 µM (active)
Nc1cc(Cl)c2nonc2c1[N+](=O)[O-],IC50,Beta Lactamase,> 49.7 µM (inactive)
same,EC50,HEK293 [2],> 59.7 µM (inactive)
same,AC50,[3],1.37 µM (active)
same,AC50,[4],5.37 µM (active)
same,CC50,[5],12 µM (active)
same,EC50,HEK293 [6],> 59.7 µM (inactive)
same,AC50,[7],29.6 µM (active)
same,IC50,CHO,2.12 µM (active)
S=C1SCN(Cc2ccccn2)CN1Cc1ccco1,CC50,Vero,24 µM (active)
same,AC50,Cytochrome P450 2C9,14.1 µM (inconclusive)
same,AC50,Cytochrome P450 2D6,17.8 µM (inconclusive)
same,AC50,Cytochrome P450 1A2,11.2 µM (inconclusive)
CN(C)C=O.CN(C)c1ccc(/C=C/c2nc3ccccc3c(=O)n2-c2ccc(C(=O)O)cc2)cc1,IC50,Beta Lactamase,9 µM (active)
same,IC50,CHO,> 49.7 µM (inactive)
CC1(Cc2ccc(C(F)(F)F)nc2)C(=O)Nc2cc(-c3ccccc3Cl)ccc21 (stereo not given),EC50,HEK293 [2],> 59.6 µM (inactive)
same,EC50,HEK293 [6],> 59.6 µM (inactive)
NS(=O)(=O)c1ccc(N/C=C\C(=O)c2ccc3ccccc3c2)cc1,IC50,[8],> 100 µM (inactive)
same,IC50,Prothrombin,56.5 µM (active)
same,IC50,[9],28.6 µM (active)
O=C(Nc1ccc(Cl)cc1)Nc1ccc2nc(-c3ccco3)c(-c3ccco3)nc2c1,IC50,[10],0.949 µM (active)
COCCCN(C(=S)NC(=O)C12CC3CC(CC(C3)C1)C2)c1c(N)n(Cc2ccccc2)c(=O)[nH]c1=O,EC50,HEK293 [2],> 59.7 µM (inactive)
same,AC50,[11],1.97 µM (active)
same,EC50,HEK293 [6],> 59.7 µM (inactive)
same,AC50,[12],2.64 µM (active)
same,AC50,[13],4.29 µM (active)
same,AC50,[14],1.92 µM (active)
CCCCNc1c(-c2ccc(-c3ccc(OC)cc3)c(OC)c2)nc2ccccn12,CC50,Vero,> 25 µM (active)
C=CCC[C@@H](Cc1ccc(F)cc1)C(=O)OC[C@@H](Cc1c[nH]c2ccccc12)NC(=O)[C@@H](CC=C)CC(=O)N(CCO)Cc1ccccc1,CC50,Vero,15.5 µM (active)
same,AC50,[15],5.96 µM (active)
O=C(Nc1ccc(F)cc1)c1ccccc1CC[N+](=O)[O-],IC50,[16],> 100 µM (not active)
same,IC50,[17],> 100 µM (inactive)
COc1cc2c(cc1OC)-c1cc(NC3CCCC3)nc(=O)n1CC2,IC50,[16],> 100 µM (not active)
same,IC50,[17],> 100 µM (inactive)
Cc1cccc(C)c1-n1c(C)cc(/C=N\Nc2ccc([N+](=O)[O-])cn2)c1C,IC50,Beta Lactamase,4.04 µM (active)
same,IC50,CHO,> 49.8 µM (inactive)
CCn1c(=O)c2cc(C(=O)N(C)c3ccccc3F)sc2c2ccccc21,CC50,[18],> 40 µM (active)
same,EC50,[19],> 30 µM (not active)
same,EC50,[20],1.04 µM (active)
same,CC50,[21],> 40 µM (active)
CCOC(=O)c1c(CSC(=N)N)n(C)c2cc(Br)c(OC(C)=O)cc12,IC50,[1],1.22 µM (active)
O=C(NCCN1C(=O)S/C(=C\c2ccccc2)C1=O)c1cc(S(=O)(=O)N2CCOCC2)c(Cl)cc1Cl,IC50,[22],10.5 µM (inactive)
same,IC50,CHO-K1,> 66.2 µM (inactive)
same,IC50,[23],20.3 µM (inactive)
same,IC50,[24],21.3 µM (inactive)
CC(C)Cc1nnc(NC(=O)Cc2cccs2)s1,IC50,[8],> 100 µM (inactive)
same,IC50,Prothrombin,44.7 µM (active)
same,IC50,[9],20.6 µM (active)
O=C(Nc1ccc(Cl)cc1)N(Cc1cccnc1)Cc1ccco1,EC50,[19],> 30 µM (not active)
same,IC50,[16],> 100 µM (not active)
same,EC50,[20],1.1 µM (active)
same,IC50,[17],> 100 µM (inactive)
C=CCn1c(SCC(=O)NCc2ccco2)nnc1-c1ccc2ccccc2n1,IC50,[16],> 100 µM (not active)
same,IC50,[17],> 100 µM (inactive)
O=C1CSC(c2ccccc2Br)N1c1ccc(Cl)cn1 (stereo not given),IC50,[1],4.58 µM (active)
